We go through 12 compounds from patent EP0284180A1, “Prostaglandins E and anti ulcers containing same” (Kabushiki Kaisha Ueno Seiyaku Oyo Kenkyujo, priority 1987, dated 1988).

The subject of assay [1] is confinement-stress induced ulcers through immersion in water. The assay is described as follows: Confinement-stress induced ulcers through immersion in water (hydrorestraint stress ulcer preventing effect). To be noted: Rattus norvegicus, stress ulcer, rats, oral; for inhibition at 1 mg/kg: dosage 1 mg/kg; for inhibition at 5 mg/kg: dosage 5 mg/kg; for ED50: ulcer inhibition rate, ulceration index not less than 2 counted (Table 1), read-out: ED50; for inhibition at 0.3 mg/kg: dosage 0.3 mg/kg; for inhibition at 3 mg/kg: dosage 3 mg/kg; for inhibition at 10 mg/kg: dosage 10 mg/kg. The class given is in vivo, male rats of the Crj : Wistar strain. The procedure: (§1) As test samples, we used the PGE as obtained in Examples 2 to 52 as described herein, 13,14-dihydro-15-keto-PGE2 (produced by Funakoshi & Co.) being employed as a control reference.
(§2) Each group of test animals used consisted of 8 to 10 male rats of the Crj : Wistar strain, weighing 180 to 230 g. Test animals were fasted for 24 hours before the oral administration of the test samples; in the case of development of confinement-stress induced ulcers through immersion in water, 10 minutes after oral administration of the test specimens, the aminals were confined in a stress cage developed by Univ. of Tokyo, then immersed up to the ensiform process of sternum in water at 23°C for 4 hours and sacrificed; in the case of formation of indomethacin-induced ulcers, shortly after the materials were given, animals were given indomethacin orally at a dose of 10 mg/kg and sacrificed after 5 hours.
(§3) The stomacks were taken out, followed by fixation with 1 % formalin, and incised along the greater curvature to carry out investigation under an illuminated magnifier for ulceration. The degree and extent of lesion and ulcer were rated based on the ulceration index being classified into the following five numerical categories: • 0: normal, with no lesion detected; • 1: bleeding or erosion of mucosa; • 2: development of less than 5 small ulcers (not greater than 2 mm in diameter); • 3: generation of not less than 5 small ulcers or a large ulcer (not less than 2 mm in diameter); • 4: generation of not less than 2 large ulcers.
(§4) On the basis of the criteria that the rats with the ulceration index of not less than "2", the ulcer inhibition rate (EDso) was calculated from ulcer-generation ratio in the control and the ratio of the test specimens.

Assay [2] has as its system indomethacin-induced ulcers. Put plainly: Indomethacin-induced ulcers (indomethacin ulcer preventing effect). The class given is in vivo, male rats of the Crj : Wistar strain. To be noted: rats; for ED50: ulcer inhibition rate (Table 2); for Ulcer index (aver. ± SE): indomethacin 10 mg/kg oral ulcer, index 0-4. The procedure: as §1, §2, §3, §4
[3] abbreviates: read-out: Inhibition factor (%).
Setting [4] is: Rattus norvegicus, indomethacin ulcer, oral, dosage 3 mg/kg, read-out: Inhibition factor (%).
The mark [5] stands for this setting: Rattus norvegicus, indomethacin ulcer, oral.

As usually defined, the inhibition is the drop in the measured response relative to a control, in per cent. By ED50 is commonly meant the midpoint of the dose-response relation. As for `CCCCCC(=O)CC[C@H]1[C@H](O)CC(=O)[C@@H]1C/C=C\CCCC(=O)OCCC` [(4)], in assay [1] (setting [3]), the inhibition at 1 mg/kg was 16.7% and the inhibition at 5 mg/kg was found to be 44.4%. For the same compound, the ED50 in assay [1] was found to be 7 mg/kg.

With `CCCCCC(=O)CC[C@H]1[C@H](C)CC(=O)[C@@H]1CC(=O)CCCCC(=O)OC` [(38)], in assay [1] (setting [3]), the inhibition at 0.3 mg/kg came to 8.1%, the inhibition at 1 mg/kg turned out to be 45.9% and the inhibition at 3 mg/kg stood at 79.7%. For the same compound, the ED50 in assay [1] came out at 1.5 mg/kg.

Turning to `CCCCCC(=O)CC[C@H]1[C@H](C)CC(=O)[C@@H]1CC(=O)CCCCC(=O)OCC` [(39)], in assay [1] (setting [3]), the inhibition at 0.3 mg/kg is 30.2%, the inhibition at 1 mg/kg was found to be 77.5% and the inhibition at 3 mg/kg worked out at 85.3%. Also, the ED50 in assay [1] was 0.5 mg/kg.

With `CCCCCC(=O)CC[C@H]1[C@H](O)CC(=O)[C@@H]1CC(=O)CCCCC(=O)OC` [(8)], the inhibition at 1 mg/kg in assay [2] (Rattus norvegicus, indomethacin ulcer, oral, dosage 1 mg/kg, read-out: Inhibition factor (%)) is 14.3%; in assay [1] (setting [3]), 62.5%. Moreover, the inhibition at 3 mg/kg in assay [2] (setting [4]) stood at 42.9%. Moreover, the median effective dose (ED50) in assay [2] (setting [5]) turned out to be 3.8 mg/kg; in assay [1], 0.6 mg/kg. Moreover, the results for the “Ulcer index (aver. ± SE)” value in assay [2] (dosage 1 mg/kg) and in assay [2] (dosage 3 mg/kg) were 2.3±0.4 and 1.7±0.3, respectively. Besides, the inhibition at 0.3 mg/kg in assay [1] (setting [3]) was 30.6%.

As for `CCCCCC(=O)CC[C@H]1[C@H](O)CC(=O)[C@@H]1CC(=O)CCCCC(=O)OCCCC` [(10)], in assay [1] (setting [3]), the inhibition at 1 mg/kg stood at 25.5% and the inhibition at 3 mg/kg was 78.4%. Further, in assay [1], the ED50 was 1.5 mg/kg.

Take `CCCCCCC(=O)CC[C@H]1[C@H](O)CC(=O)[C@@H]1CC(=O)CCCCC(=O)OCC` [(37)]: in assay [1] (setting [3]), the inhibition at 1 mg/kg is 8.1% and the inhibition at 3 mg/kg was 45.9%. Moreover, in assay [1] (dosage 6 mg/kg, read-out: Inhibition factor (%)), the inhibition at 6 mg/kg amounted to 79.7%. Further, in assay [1], the median effective dose (ED50) is 3 mg/kg.

On to `CCCCCC(=O)CC[C@H]1[C@H](O)CC(=O)[C@@H]1C/C=C\CCCC(=O)OC` [(2)], for which, in assay [2] (setting [4]), the inhibition at 3 mg/kg is 30%. Besides, the inhibition at 6 mg/kg in assay [2] (Rattus norvegicus, indomethacin ulcer, oral, dosage 6 mg/kg, read-out: Inhibition factor (%)) is 50%. The inhibition at 20 mg/kg in assay [2] (Rattus norvegicus, indomethacin ulcer, oral, dosage 20 mg/kg, read-out: Inhibition factor (%)) was 100%. The ED50 in assay [2] (setting [5]) amounted to 6 mg/kg; in assay [1], 4 mg/kg. For the same compound, the “Ulcer index (aver. ± SE)” value amounted to 1.9±0.4 in assay [2] (dosage 3 mg/kg), 1.4±0.3 in assay [2] (dosage 6 mg/kg) and 0.4±0.2 in assay [2] (dosage 20 mg/kg). In addition, the inhibition at 5 mg/kg in assay [1] (setting [3]) was 58.3%. Moreover, the inhibition at 15 mg/kg in assay [1] (dosage 15 mg/kg, read-out: Inhibition factor (%)) turned out to be 87.5%.

With `CCCCCC(=O)CC[C@H]1[C@H](O)CC(=O)[C@@H]1CCCCCCC(=O)OC` [(6)], in assay [1] (setting [3]), the inhibition at 3 mg/kg came to 28% and the inhibition at 10 mg/kg was determined as 72.2%. Moreover, the ED50 in assay [1] came out at 5.5 mg/kg.

As for `CCCCCC(=O)CC[C@H]1[C@H](O)CC(=O)[C@@H]1C/C=C\CCCC(=O)OCC` [(3)], the inhibition at 3 mg/kg in assay [2] (setting [4]) was found to be 42.9%; in assay [1] (setting [3]) it was 86.1%. Moreover, the inhibition at 10 mg/kg in assay [2] (Rattus norvegicus, indomethacin ulcer, oral, dosage 10 mg/kg, read-out: Inhibition factor (%)) came out at 71.4%; in assay [1] (setting [3]), 100%. Also, the ED50 in assay [2] (setting [5]) turned out to be 4.4 mg/kg; in assay [1] it was 1.5 mg/kg. Besides, the “Ulcer index (aver. ± SE)” value in assay [2] (dosage 3 mg/kg) is on record as 1.7±0.4; in assay [2] (dosage 10 mg/kg) it was 1.0±0.3. Also, the inhibition at 1 mg/kg in assay [1] (setting [3]) turned out to be 25%.

Regarding `CCCCCC(=O)CC[C@H]1[C@H](O)CC(=O)[C@@H]1CCCCCCC(=O)OCC` [(7)], in assay [1] (setting [3]), the inhibition at 3 mg/kg turned out to be 37.5% and the inhibition at 10 mg/kg turned out to be 75%. Further, the median effective dose (ED50) in assay [1] was 4.5 mg/kg.

Turning to `CCOC(=O)CCCCC(=O)C[C@H]1C(=O)C[C@@H](O)[C@@H]1CCC(=O)CCCC(C)C` [(36)], in assay [1] (setting [3]), the inhibition at 0.3 mg/kg was found to be 22.6% and the inhibition at 1 mg/kg was found to be 57%. Further, the ED50 in assay [1] was 0.8 mg/kg.

Consider `CCCCCC(=O)CC[C@H]1[C@H](O)CC(=O)[C@@H]1C/C=C\CCCC(=O)OC(C)C` [(5)], for which, in assay [1] (setting [3]), the inhibition at 1 mg/kg turned out to be 14.3% and the inhibition at 5 mg/kg turned out to be 44%. Also, the ED50 in assay [1] stood at 6.5 mg/kg.
